Consider one molecule from US11135326B2, “Storage-stable aqueous solutions of chlorine dioxide and methods for preparing and using them” (CDG ENVIRONMENTAL, LLC, priority 2005, dated 2021).

For data set [1] the following is noted: cited from earlier work.
Data set [2] in a line: Storage stability of aqueous chlorine dioxide solutions, concentration measured by amperometric titration. The text has this:
To determine the impact of various contaminants, the inventors set up a series of experiments to test the effect of the contaminants at various concentrations.
Pure water containing less than 1 ppm solid impurities was used to dissolve the chlorine dioxide gas and form the aqueous chlorine dioxide solutions at a concentration of 3000 ppm+/−5% chlorine dioxide as the initial starting concentration. The data in the figures is reported as % of starting concentration unless otherwise noted.
All data on concentration of aqueous solutions were measured by amperometric titration as described in EPA Standard Methods. Serial dilution was used to adjust to the range of the analytical device.
The accuracy of the analytical technique used is ±3%. Any variation of less than 3% is not considered significant.

Molecules are shown by their SMILES. Bounds are passed on as bounds.

As to `[O][Cl+][O-]` [chlorine dioxide], the minimum decomposition rate in data set [1] (pH of 4.85 to 3.90, U.S. 2002/0037248) is 0.6 % per hour. Moreover, the strength lost in data set [1] (within 24 hours, U.S. Pat. No. 7,229,647) is recorded as 80-90%. Also, the “loss of concentration (in words)” value in data set [2] (1500-6000 ppm of salt, even at room temperature, compared with about 100 ppm or less) is “much higher”. Besides, the “rate of deterioration (in words)” value is “deteriorate at a much higher rate” in data set [2] (3000 ppm, alkali metal salts at 100 ppm, 40° C.); “deteriorated at a markedly higher rate” in data set [2] (FIG. 5, 100 ppm Na+ and 40° C.). The “lose % of their concentration” value in data set [2] (3000 ppm, less than 10 ppm alkali metal salts, about 100 days, temperatures up to 40° C.) is reported as “less than 10%”. Also, the “shelf life (in words)” value in data set [2] (FIG. 2, 4500 ppm starting concentration, distilled water, amber glass bottles, 10° C. to about 40° C.) is “commercially acceptable shelf life”. The “retains % of its starting concentration” value in data set [2] (FIG. 2, pure chlorine dioxide at about 3000 ppmw in pure water, 40° C., more than 90 days) is reported as at least 90%. Besides, the “stability in PET bottles (in words)” value in data set [2] (FIG. 4, distilled water, 750 mL biaxially oriented PET bottles, after an initial rapid rate of loss) is given as “almost as stable as that stored in glass”. For the same molecule, the “stability (in words)” value in data set [2] (FIG. 5, 25° C. and up to 100 ppm NaCl) is “equally stable within the margin of error”. In data set [2] (FIG. 10, 3000 ppm initial, small amounts of manganese ions (e.g., 10 ppm)), the “effect of manganese ions on storage stability (in words)” value is “greatly diminish the storage stability”. In addition, in data set [2] (refrigerated, inferred from FIG. 2 data), the “shelf life of refrigerated solutions” value is “about a year or more”.
